Results reported in article PMC10758931 (RSC Advances, 2024).
In brackets after ≈: the same amount, converted by molar mass.

Key:
MCF-7 cell line = test: Cytotoxic activity; format: cell-based; conditions: for CC50: Homo sapiens, MCF7, read-out: LC50, MCF-7 cell line; for SI (Selectivity index = LC50 value normal cell/LC50 value cancer cell): Vero / MCF-7
normal Vero cell line = test: Cytotoxic activity; format: cell-based; conditions: MTT, mean ± standard error of three experiments

Compound | CC50 (MCF-7 cell line) [µg/mL] | SI (Selectivity index = LC50 value normal cell/LC50 value cancer cell) (MCF-7 cell line) | LC50, MCF-7 cell line (MCF-7 cell line; MCF-7, MTT, mean ± standard error of three experiments) [µg/mL] | LC50, Vero (normal Vero cell line) [µg/mL]
Cc1nn(-c2ccccc2)c2c1C(c1cncs1)N(C(=O)c1ccncc1)N2 (stereo not drawn) [Compound 1k] | 62.34 ± 0.07 (≈ 160 µM) | 1.25 |  | 
Cc1nn(-c2ccccc2)c2c1C(c1ccc([N+](=O)[O-])cc1)N(C(=O)c1ccncc1)N2 (stereo not drawn) [Compound 1d] | 91.1 ± 0.06 (≈ 214 µM) | 0.91 |  | 
COc1ccc(C2c3c(C)nn(-c4ccccc4)c3NN2C(=O)c2ccncc2)cc1 (stereo not drawn) [Compound 1e] | 23.62 ± 0.02 (≈ 57.4 µM) | 3.36 |  | 
Cc1nn(-c2ccccc2)c2c1C(c1ccc(Cl)cc1)N(C(=O)c1ccncc1)N2 (stereo not drawn) [Compound 1b] | 22.1 ± 0.04 (≈ 53.1 µM) | 2.95 |  | 
Cc1nn(-c2ccccc2)c2c1C(c1ccc(O)cc1)N(C(=O)c1ccncc1)N2 (stereo not drawn) [Compound 1c] | 70.1 ± 0.05 (≈ 176 µM) | 1.05 |  | 
CC(C)=CCCC(C)=CC1c2c(C)nn(-c3ccccc3)c2NN1C(=O)c1ccncc1 (stereo not drawn) [Compound 1g] | 30.82 ± 0.04 (≈ 72.1 µM) |  |  | 
Cc1nn(-c2ccccc2)c2c1C(c1ccc(N(C)C)cc1)N(C(=O)c1ccncc1)N2 (stereo not drawn) [Compound 1f] | 19.92 ± 0.01 (≈ 46.9 µM) | 4.12 |  | 
Cc1nn(-c2ccccc2)c2c1C(c1c[nH]c3ccccc13)N(C(=O)c1ccncc1)N2 (stereo not drawn) [Compound 1h] | 21.43 ± 0.03 (≈ 51 µM) |  |  | 
COc1cccc2c1C(=O)c1c(O)c3c(c(O)c1C2=O)C[C@@](O)(C(=O)CO)C[C@@H]3O[C@H]1C[C@H](N)[C@H](O)[C@H](C)O1 [Doxorubicin, doxorubicin, reference compound] | 0.65 ± 0.01 (≈ 1.2 µM) | 32.38 |  | 
Cc1nn(-c2ccccc2)c2c1C(c1ccccn1)N(C(=O)c1ccncc1)N2 (stereo not drawn) [Compound 1j] | 57.34 ± 0.08 (≈ 150 µM) | 1.45 |  | 
Cc1nn(-c2ccccc2)c2c1C(c1ccco1)N(C(=O)c1ccncc1)N2 (stereo not drawn) [Compound 1i] | 26.66 ± 0.05 (≈ 71.8 µM) |  |  | 
(3-(4-chlorophenyl)-4-methyl-6-phenyl pyrazolo[3,4-c]pyrazol-2(1H,3H,6H)-yl)(pyridin-4-yl)methanone [Compound 1a] |  |  | 78.10 ± 0.02 | 55.02 ± 0.11
